Experimental data taken from US20250387449A1, “PHARMACEUTICAL COMBINATION COMPRISING AN IBAT INHIBITOR AND A BILE ACID BINDER” (Albireo AB, priority 2010, published 2025).

Legend:
[1] = Phase IIb placebo-controlled dose-finding study in patients with Chronic Idiopathic Constipation: adverse events; assay type: in vivo, human; conditions: 56 days treatment
Method: A Phase IIb, Double-blind, Randomized, Placebo-controlled, Multi-centre, Dose-finding, Efficacy and Safety Study of a Range of Doses of the compound of Example 14 in about 200 patients with Chronic Idiopathic Constipation, where patients were treated for 56 days, was performed. The patients were males or non-pregnant females ≥20 years of age and ≤80 years of age, having a body mass index (BMI) ≥18.5 but <35.
All patients with adverse events of diarrhea and abdominal pain type related to treatment with the compound of Example 14 are presented in table 2.

[2] = as above; assay type: in vivo, human; conditions: Example 14 plus colonic delivery of 400 mg colesevelam 3 times a day

CCCCC1(CCCC)CN(c2ccccc2)c2cc(SC)c(OCC(=O)N[C@@H](C(=O)NCC(=O)O)c3ccccc3)cc2S(=O)(=O)C1 [Example 14, 1,1-Dioxo-3,3-dibutyl-5-phenyl-7-methylthio-8-(N—{(R)-1′-phenyl-1′-[N′-(carboxymethyl)-carbamoyl]methyl}carbamoylmethoxy)-2,3,4,5-tetrahydro-1,5-benzothiazepine]
Abdominal Pain, % of Population ([1]; 5 mg): 10.4 % of Population | Abdominal Pain, Number of Patients ([1]; 5 mg): 5 | Diarrhoea, % of Population ([1]; 5 mg): 8.3 % of Population | Diarrhoea, Number of Patients ([1]; 5 mg): 4 | Abdominal Pain, % of Population ([1]; 10 mg): 10.6 % of Population | Abdominal Pain, Number of Patients ([1]; 10 mg): 5 | Diarrhoea, % of Population ([1]; 10 mg): 10.6 % of Population | Diarrhoea, Number of Patients ([1]; 10 mg): 5 | Abdominal Pain, % of Population ([1]; 15 mg): 27.1 % of Population | Abdominal Pain, Number of Patients ([1]; 15 mg): 13 | Diarrhoea, % of Population ([1]; 15 mg): 16.7 % of Population | Diarrhoea, Number of Patients ([1]; 15 mg): 8 | bile acid dependent side effects generated from colon (diarrhoea, abdominal pain) [2]: effectively block bile acid side effects generated from the colon
